Literature values, collected in patent publication US20200170950A1, “COMPOSITIONS COMPRISING A CANNABINOID OR A CANNABIS-DERIVED COMPOUND, METHODS OF MAKING AND USE” (priority 2018, published 2020).

What was measured:
[1] = molecular target: CB1 receptor (Homo sapiens, UniProt P21554)
[2] = molecular target: CB2 receptor (Homo sapiens, UniProt P34972)
[3] = system: α2-adrenergic receptor
[4] = molecular target: T1, 5-HT1A receptor (Homo sapiens, UniProt P08908)
T1 sequence (P08908 1-422): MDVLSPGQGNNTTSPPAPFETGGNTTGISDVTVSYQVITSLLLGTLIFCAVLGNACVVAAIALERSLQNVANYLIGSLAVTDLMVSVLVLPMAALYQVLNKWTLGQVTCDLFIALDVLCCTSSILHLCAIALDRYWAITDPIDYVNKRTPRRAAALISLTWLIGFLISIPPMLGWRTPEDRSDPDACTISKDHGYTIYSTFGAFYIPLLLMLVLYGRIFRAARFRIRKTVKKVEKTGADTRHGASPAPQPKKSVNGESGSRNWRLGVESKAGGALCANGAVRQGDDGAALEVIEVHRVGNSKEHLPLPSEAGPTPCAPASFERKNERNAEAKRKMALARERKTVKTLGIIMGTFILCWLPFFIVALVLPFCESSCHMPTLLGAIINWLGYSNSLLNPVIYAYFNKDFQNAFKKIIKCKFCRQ

Sequence of CB1 receptor (P21554 whole entry): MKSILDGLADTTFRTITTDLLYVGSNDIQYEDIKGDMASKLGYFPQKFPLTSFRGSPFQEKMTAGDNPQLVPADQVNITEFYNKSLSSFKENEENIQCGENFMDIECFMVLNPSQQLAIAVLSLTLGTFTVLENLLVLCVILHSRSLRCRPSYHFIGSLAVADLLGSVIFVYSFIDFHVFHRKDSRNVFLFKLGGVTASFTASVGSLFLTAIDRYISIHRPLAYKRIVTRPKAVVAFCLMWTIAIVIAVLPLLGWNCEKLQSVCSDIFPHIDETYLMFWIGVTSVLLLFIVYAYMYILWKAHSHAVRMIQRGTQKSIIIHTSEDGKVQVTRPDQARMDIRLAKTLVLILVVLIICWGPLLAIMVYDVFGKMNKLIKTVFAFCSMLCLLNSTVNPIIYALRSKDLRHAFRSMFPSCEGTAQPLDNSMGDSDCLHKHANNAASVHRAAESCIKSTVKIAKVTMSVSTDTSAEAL
Sequence of CB2 receptor (P34972 whole entry): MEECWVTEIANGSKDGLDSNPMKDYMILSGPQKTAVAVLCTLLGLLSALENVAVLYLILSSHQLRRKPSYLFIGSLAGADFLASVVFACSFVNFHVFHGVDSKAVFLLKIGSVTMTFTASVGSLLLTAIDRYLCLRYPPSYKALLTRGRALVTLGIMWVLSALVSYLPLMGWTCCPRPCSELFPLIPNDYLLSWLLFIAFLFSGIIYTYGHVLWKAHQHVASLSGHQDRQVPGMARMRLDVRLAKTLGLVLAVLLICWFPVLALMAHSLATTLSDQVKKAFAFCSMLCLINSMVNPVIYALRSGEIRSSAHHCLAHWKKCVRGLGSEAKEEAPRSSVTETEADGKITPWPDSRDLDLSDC

SMILES | activity/affinity at CB1 receptor [1] | activity/affinity at CB2 receptor [2] | affinity, α2-adrenergic receptor agonist [3] | affinity, 5-HT1A receptor antagonist [4]
CCCCCc1cc(O)c2c(c1)OC(C)(C)c1ccc(C)cc1-2 [CBN, Cannabinol] | partial agonist | higher affinity |  | 
CCCCCc1cc(O)c(C/C=C(\C)CCC=C(C)C)c(O)c1 [CBG, Cannabigerol] | low affinity | antagonist | high affinity | moderate affinity
